From patent US12252524B2, “GIP/GLP1 co-agonist compounds” (Eli Lilly and Company, priority 2018, dated 2025) come the findings set out here.

For one assay, the target named is T1, human Gcg receptor (Homo sapiens, UniProt P47871).
T1 construct: expressed in transfected cells; crude membranes
As to the kind of experiment: [125I]-Glucagon binding (SPA), human Gcg receptor. Particulars: read-out: hGLcgR Ki, nM (SEM, n). Put shortly:
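Cell pellets were lysed in hypotonic Tris buffer, pH 7.5, homogenized, and spun at low then high speed to give crude membranes. Ki was derived from the fitted IC50.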

Assay [1] deals with T2, human GLP-1R (Homo sapiens, UniProt P43220). Nature of the assay: GLP-1R CHO cell β-arrestin recruitment assay. Format: cell-based. The arrangement: host or cells: CHO-K1 PathHunter cells, assay-ready frozen. Particulars: for EC50: CHO-K1 cells, PathHunter β-arrestin-2 recruitment, 0.1% casein, read-out: hGLP1R B-Arrestin2 Rel EC50 uM (SEM, n); for hGLP1R B-Arrestin2 % Top: normalized to GLP-1 maximum control. Summed up: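 PathHunter CHO-K1 cells with ProLink-tagged human GLP-1R and enzyme-acceptor-tagged β-arrestin-2 treated with serially diluted peptides in assay buffer containing 0.1% hydrolyzed casein, 90 min at 37 °C.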
A general note: Arrestin recruitment assays detect the binding of arrestin to an activated receptor.

Assay [2] concerns the target T3, gastric inhibitory peptide receptor (GIPR) (Homo sapiens, UniProt P48546).
T3 sequence (P48546 22-466): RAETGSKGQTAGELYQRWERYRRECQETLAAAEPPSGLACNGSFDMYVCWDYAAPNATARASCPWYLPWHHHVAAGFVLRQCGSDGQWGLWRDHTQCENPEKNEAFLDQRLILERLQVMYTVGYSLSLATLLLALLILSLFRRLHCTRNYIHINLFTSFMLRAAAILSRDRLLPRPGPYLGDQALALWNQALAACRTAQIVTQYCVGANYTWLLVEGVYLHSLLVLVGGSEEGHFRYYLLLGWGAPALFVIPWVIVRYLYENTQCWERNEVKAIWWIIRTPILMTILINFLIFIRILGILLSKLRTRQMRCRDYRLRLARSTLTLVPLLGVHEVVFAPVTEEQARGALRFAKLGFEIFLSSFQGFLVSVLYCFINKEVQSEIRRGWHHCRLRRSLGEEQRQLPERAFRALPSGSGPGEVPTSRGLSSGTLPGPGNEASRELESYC
Nature of the assay: cAMP pharmacological functional assay in presence of casein, hGIPR. It counts as cell-based. Particulars: HEK293 cells expressing hGIPR, 0.1% Casein, geometric mean; read-out: hGIPR cAMP Rel EC50 nM (SEM, n).

For assay [3], the target named is T2, human GLP-1R. As to the kind of experiment: GLP-1R HEK293 cell membrane [35S]GTPγS binding assay. The arrangement: expressed in transfected cells; host or cells: HEK293 cells expressing human GLP-1R; membranes. Format: biochemical. The conditions noted are these: HEK293 cell membranes expressing human GLP-1R, [35S]GTPγS binding; read-out: hGLP1R GTPgS Rel EC50 nM (SEM, n). Put shortly: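 Membranes from HEK293 cells expressing the receptor incubated with peptide and […] [35S]GTPγS in HEPES pH 7.4 buffer with NaCl, MgCl2, saponin and BSA, 30 min at room temperature. Gαs-bound label captured by anti-Gαs antibody/SPA beads and counted; EC50 from four-parameter logistic fit.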
(GTPγS is a poorly hydrolysed GTP analogue; its binding reports G protein activation.)

Assay [4] has as its target human GLP-1 receptor (GLP-1R) (Homo sapiens, UniProt P43220). As to the kind of experiment: cAMP pharmacological functional assay in presence of casein, hGLP-1R. Format: cell-based. Particulars: HEK293 cells expressing hGLP-1R, 0.1% Casein, geometric mean; read-out: hGLP1R cAMP Rel EC50 nM (SEM, n).

Numbered stars: 1 amine (or outer) side, 2 acyl side, 3 side chain; on linkers, the order of the positions; unused ones are H or OH. Square brackets hold non-standard residues; d marks the D form. Side chains are listed from the residue outwards. Peptide text beside a SMILES is read from it. * marks the point of attachment. C18 diacid = O=C(O)CCCCCCCCCCCCCCCCC(=O)*; γGlu = O=C(O)[C@H](CCC(=O)[*:2])N[*:1]; αMeL = CC(C)C[C@](C)(N)C(=O)O; AEEA = NCCOCCOCC(=O)O; Aib = CC(C)(N)C(=O)O

T2 sequence (P43220 24-463): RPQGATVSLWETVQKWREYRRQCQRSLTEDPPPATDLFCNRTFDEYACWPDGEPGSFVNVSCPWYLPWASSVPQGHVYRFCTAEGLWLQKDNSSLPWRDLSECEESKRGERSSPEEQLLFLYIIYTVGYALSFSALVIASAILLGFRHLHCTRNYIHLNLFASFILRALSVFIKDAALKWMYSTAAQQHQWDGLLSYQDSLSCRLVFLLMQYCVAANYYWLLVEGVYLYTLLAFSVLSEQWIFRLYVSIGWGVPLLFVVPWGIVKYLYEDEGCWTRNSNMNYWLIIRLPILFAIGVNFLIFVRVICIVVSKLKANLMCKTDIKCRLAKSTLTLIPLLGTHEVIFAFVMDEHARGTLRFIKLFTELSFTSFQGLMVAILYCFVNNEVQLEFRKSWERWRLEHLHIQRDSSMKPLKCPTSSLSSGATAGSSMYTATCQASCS
T1 sequence (P47871 26-477): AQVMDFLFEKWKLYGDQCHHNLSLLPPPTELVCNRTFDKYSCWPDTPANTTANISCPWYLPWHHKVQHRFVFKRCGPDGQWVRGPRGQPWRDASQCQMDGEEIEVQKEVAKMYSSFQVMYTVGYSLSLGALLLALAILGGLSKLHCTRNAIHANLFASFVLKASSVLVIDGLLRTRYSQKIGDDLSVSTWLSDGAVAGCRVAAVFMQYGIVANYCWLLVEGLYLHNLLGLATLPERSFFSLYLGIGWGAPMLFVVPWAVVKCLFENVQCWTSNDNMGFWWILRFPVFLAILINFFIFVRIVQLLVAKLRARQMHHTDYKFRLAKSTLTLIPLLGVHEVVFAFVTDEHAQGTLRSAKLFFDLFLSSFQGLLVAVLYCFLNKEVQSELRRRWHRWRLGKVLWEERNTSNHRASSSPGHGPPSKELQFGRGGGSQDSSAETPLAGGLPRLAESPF
human GLP-1 receptor (GLP-1R), sequence (P43220 24-463): as the sequence (P43220 24-463) above

For the compound `CC[C@H](C)[C@H](NC(=O)[C@H](CC(C)C)NC(=O)[C@H](Cc1ccc(O)cc1)NC(=O)[C@H](CCC(=O)O)NC(=O)[C@@H](NC(=O)[C@H](Cc1ccccc1)NC(=O)[C@H](C)NC(=O)C(C)(C)NC(=O)[C@H](CCC(N)=O)NC(=O)[C@H](C)NC(=O)[C@H](CCCCNC(=O)COCCOCCNC(=O)COCCOCCNC(=O)CC[C@H](NC(=O)CCCCCCCCCCCCCCCCC(=O)O)C(=O)O)NC(=O)[C@H](CCC(=O)O)NC(=O)[C@H](CC(=O)O)NC(=O)[C@H](CC(C)C)NC(=O)[C@](C)(CC(C)C)NC(=O)[C@@H](NC(=O)[C@H](CO)NC(=O)[C@H](Cc1ccc(O)cc1)NC(=O)[C@H](CC(=O)O)NC(=O)[C@H](CO)NC(=O)[C@@H](NC(=O)[C@H](Cc1ccccc1)NC(=O)[C@@H](NC(=O)CNC(=O)[C@H](CCC(=O)O)NC(=O)C(C)(C)NC(=O)[C@@H](N)Cc1ccc(O)cc1)[C@@H](C)O)[C@@H](C)O)[C@@H](C)CC)[C@@H](C)CC)C(=O)N[C@@H](CCC(=O)O)C(=O)NCC(=O)NCC(=O)N1CCC[C@H]1C(=O)N[C@@H](CO)C(=O)N[C@@H](CO)C(=O)NCC(N)=O` [Example 303] (H-Y[Aib]EGTFTSDYSI[αMeL]LDEK([AEEA-AEEA-γGlu-C18 diacid])AQ[Aib]AFIEYLIEGGPSSG-NH2), on human Gcg receptor, the Ki (as a rule, the equilibrium dissociation constant of an inhibitor or competing ligand from its target) was 502 nM. For the same compound, the EC50 (usually the concentration at which the effect is half-maximal) at human GLP-1R [1] stood at 0.0179 µM; in assay [2], 0.0254 nM; on human GLP-1R [3], 0.547 nM; in assay [4] it was 0.104 nM. Moreover, the “hGLP1R B-Arrestin2 % Top” value on human GLP-1R [1] is 47.7%.
As to `CC[C@H](C)[C@H](NC(=O)[C@H](CC(C)C)NC(=O)[C@H](Cc1ccc(O)cc1)NC(=O)[C@H](CCC(=O)O)NC(=O)[C@@H](NC(=O)[C@H](Cc1ccccc1)NC(=O)[C@H](C)NC(=O)C(C)(C)NC(=O)[C@H](CCC(N)=O)NC(=O)[C@H](C)NC(=O)[C@H](CCCCNC(=O)COCCOCCNC(=O)COCCOCCNC(=O)CC[C@H](NC(=O)CCCCCCCCCCCCCCCCC(=O)O)C(=O)O)NC(=O)[C@H](CCCCN)NC(=O)[C@H](CC(=O)O)NC(=O)[C@H](CC(C)C)NC(=O)[C@H](CC(C)C)NC(=O)[C@@H](NC(=O)[C@H](CO)NC(=O)[C@H](Cc1ccc(O)cc1)NC(=O)[C@H](CC(=O)O)NC(=O)[C@H](CO)NC(=O)[C@@H](NC(=O)[C@H](Cc1ccccc1)NC(=O)[C@@H](NC(=O)CNC(=O)[C@H](CCC(=O)O)NC(=O)C(C)(C)NC(=O)[C@@H](N)Cc1ccc(O)cc1)[C@@H](C)O)[C@@H](C)O)[C@@H](C)CC)[C@@H](C)CC)C(=O)N[C@@H](C)C(=O)NCC(=O)NCC(=O)N1CCC[C@H]1C(=O)N[C@@H](CO)C(=O)N[C@@H](CO)C(=O)NCC(=O)N[C@@H](C)C(=O)N1CCC[C@H]1C(=O)N1CCC[C@H]1C(=O)N1CCC[C@H]1C(=O)N[C@@H](CO)C(N)=O` [Example 316] (H-Y[Aib]EGTFTSDYSILLDKK([AEEA-AEEA-γGlu-C18 diacid])AQ[Aib]AFIEYLIAGGPSSGAPPPS-NH2), the Ki at human Gcg receptor was 654 nM. Besides, the EC50 on human GLP-1R [1] came to 0.00608 µM; in assay [2], 0.024 nM; at human GLP-1R [3], 0.766 nM; in assay [4] it was 0.122 nM. Moreover, the “hGLP1R B-Arrestin2 % Top” value at human GLP-1R [1] is listed as 26.1%.
